In brackets after ≈: the same amount, converted by molar mass.
Row | Structure (SMILES) | logP | solubility [mM]
1 | Nc1ncc2ncn(COCCO)c2n1 | -1.08 | –
2 | CCCCCOC(=O)c1cccnc1 | 2.55 | –
3 | CC(C)CCCCCCCOP(=O)(Oc1ccccc1)Oc1ccccc1 | 5.44 | –
4 | O=C([O-])c1ccccc1O.[Na+] | – | 781
5 | S=C=Nc1ccc(I)cc1 | 4.22 | –
6 | CC(C)c1ccc(C=[N+]([O-])c2ccccc2)cc1 | 3.37 | –
7 | Nc1c(OC2C=CC(N3CCCCCC3=O)=CC2)cc(O)c2c1C(=O)c1ccccc1C2=O (stereo not drawn) | 5.3 | –
8 | CCNc1nc(NC(C)C)nc(OC)n1 | 2.69 | –
9 | COC1=C(OC)C(=O)C=CC1=O | 0.34 | –
10 | CC(=O)OCN1C(=O)C=C(C)C1=O | 0.45 | –
11 | Cc1ccc2oc(-c3ccccc3C(=O)O)c(Br)c2c1 | 5.19 | –
12 | COc1ccccc1C=O | 1.72 | –
13 | Brc1ccc(-c2ccccc2)cc1 | 4.96 | –
14 | CCCCCN(CCCCC)N=O | 3.86 | –
15 | CN(C)c1ccc(C=NNC(=N)N)cc1 | 0.28 | –
16 | N[C@@H](Cc1ccc(O)c(O)c1)C(=O)OC1CCCCC1 | 1.79 | –
17 | N=C(N)NN=Cc1ccc(Cl)cc1 | 0.96 | –
18 | CCOP(=O)(OCC)SCc1ccccc1 | 3.21 | 3.84 (≈ 1000 µg/mL)
19 | CC(CO)CO | 0.24 | –

Row | Structure (SMILES) | logP | solubility [mM]
20 | O=C(O)CC[Se]Cc1ccccc1 | 1.67 | –
21 | CCCCCCCCCCCCN1CC(C(=O)O)CC1=O (stereo not drawn) | 2.6 | –
22 | CCn1cc(C(=O)NC(C)C(=O)OC)c(=O)c2ccc(C)nc21 (stereo not drawn) | 2.47 | –
23 | CCCCCCCC(=O)[O-].[Na+] | -1.38 | –
24 | CC(C)(C)OCCO | 0.39 | –
25 | CCOC(=O)COc1cccc2ccccc12 | 2.9 | –
26 | CCCCC(OC(Cc1ccccc1)C(=O)N1CCC(OCOC)CC1)C(=O)NC(CC1CCCCC1)C(O)CC(C(=O)NCCCNC(C)=O)C(C)C (stereo not drawn) | 4.3 | –
27 | O=C(O)CCCCn1nc2ccccc2n1 | 0.94 | –
28 | CCCCC[C@H](O)/C=C/[C@H]1[C@H](O)CC(=O)[C@@H]1CCCCCCC(=O)O | 3.2 | –
29 | CC(C)CC=O | – | 163 (≈ 14000 µg/mL)
30 | CC(=O)N[C@@H](Cc1ccccc1)C(=O)O | 0.93 | –
31 | COC1=C(OC)C(=O)C(C)=CC1=O | 0.8 | –
32 | CCOC(=O)c1ccccc1O | 2.95 | –
33 | CC(C)c1cccc(OP(=O)(Oc2ccccc2)Oc2ccccc2)c1 | 5.31 | –
34 | Clc1ccc(Cl)c(NC2=NCCN2)c1Cl | 2.46 | –
35 | COCCOC(=O)C1=C(C)NC(C)=C(C(=O)OC(C)C)C1c1cccc([N+](=O)[O-])c1 (stereo not drawn) | 3.05 | –
36 | c1ccc2c(c1)ccc1cc3ccc4ccccc4c3cc12 | 6.54 | –
37 | N#CCCCCC#N | -0.32 | –

Further lines, with some results ahead:

Row | logP | Structure (SMILES) | solubility [mM]
38 | 3.84 | O=C1OC(=Nc2ccc(Cl)cc2)C2=C1CCCC2 | –
39 | 1.48 | CC(C)CCOC(=O)c1cc(=O)[nH]c(=O)[nH]1 | –
40 | 7.15 | Cc1cc(Cl)c(Cl)cc1Cc1c(Cl)cccc1Cl | –
41 | 5.78 | c1ccc2c(c1)-c1cccc3c1c-2cc1ccccc13 | –
42 | 0.92 | c1ccc(Cn2cncn2)cc1 | –
43 | 3.33 | CC1(C)Cc2cccc([N+](=O)[O-])c2O1 | –
44 | 0.07 | CN1C(=O)CC[C@H]1c1cccnc1 | –
45 | 1.31 | CC(=O)CC(C)C | –
46 | 3.96 | CCCCCCOC(=O)c1ccc(N)cc1 | –
47 | -0.54 | CCOCCOCCO | –
48 | 1.78 | CN(C(=O)C(Cl)Cl)c1ccc(O)cc1 | –
49 | -1.08 | NC(N)=S | –
50 | -0.38 | CN1CCCC1=O | –
51 | 1.62 | CC(CC(=O)c1ccccc1)C(=O)O (stereo not drawn) | –
52 | 3.61 | CCn1cc(C(=O)NC(C(=O)OC)C(C)C)c(=O)c2ccc(C)nc21 (stereo not drawn) | –
53 | 5.66 | ClC1=C(Cl)C2(Cl)C(Cl)=C(Cl)C3CC1C(Cl)C32 (stereo not drawn) | –
54 | 3.01 | C=CCOc1ccccc1OCC(CNC(C)C)OC(=O)C1CC1 (stereo not drawn) | –
55 | 0.15 | CCNC(=O)CCC(NS(=O)(=O)c1ccccc1)C(=O)O (stereo not drawn) | –
56 | -1.07 | CC(=O)OCCOCn1cnc2c(=O)[nH]c(N)nc21 | –
57 | -0.25 | CC1=NS(=O)(=O)c2cccnc2N1 | –

From the OPERA property sets (Mansouri et al. 2018)
